Experimental data published in PubChem BioAssay AID1645848.
In brackets after ≈: the same amount, converted by molar mass.

Details: buffer; pH 7.4; 6.0 h; 150.0 µM

Structure (SMILES) | solubility kinetic [µg/mL]
O=c1cc(-c2nc(Nc3ccc(F)c(F)c3)c3ccccc3n2)cc[nH]1 | 11.9 (≈ 34.1 µM)
Cc1ccc(Cl)cc1NS(=O)(=O)c1cc2c(cc1F)NC(=O)CC2 | 1.76 (≈ 4.79 µM)
COc1cc(NS(=O)(=O)c2ccc(C)cc2)c(C(=O)Nc2nc(-c3ccccc3)cs2)cc1OC | < 1
Cc1cccc(CN2CCN(c3ccccn3)CC2)c1 | 30.9 (≈ 115 µM)
CCOc1ccc(CCNC(=O)c2cc3sccc3n2Cc2ccccc2)cc1OCC | < 1
NC(=O)C1CCN(c2nc(-c3ccccc3Cl)cs2)CC1 | > 47
NC(=O)C1CCN(c2nc(-c3ccccc3[N+](=O)[O-])cs2)CC1 | > 49
CCOc1ccc(CCNC(=O)c2ccccc2)cc1OCC | 29.2 (≈ 93.3 µM)
COc1ccc(-c2csc(N3CCC(C(N)=O)CC3)n2)cc1OC | 17.5 (≈ 50.5 µM)
Cc1ccc([S+](=O)([O-])n2cc(Cc3ccc(-c4ccccc4)cc3)c3ccccc32)cc1 | < 1
CCNC(=O)c1ccc(-c2ccc3ncnc(NCC4CCCO4)c3c2)o1 (configuration not stated) | 25 (≈ 68.3 µM)
O=C1CCCC2=C1C(c1[nH]ncc1Cl)N=C(Nc1nc3c(Cl)cccc3o1)N2 (configuration not stated) | 1.83 (≈ 4.39 µM)
Cc1ccc(S(=O)(=O)Nc2cc(C)ccc2C(=O)Nc2nc(-c3ccccc3)cs2)cc1 | < 1
COc1ccc(-c2cc(-c3ccccc3)nc(SCC(=O)Nc3ccccc3C)c2C#N)cc1 | < 1
COCCNc1ncc(-c2cccc(O)c2)c2c1OCC2 | > 85
CCCCCCC.CN1C(=O)CN=C(c2ccc[nH]2)c2cc(Cl)ccc21 | > 40
CNc1oc(-c2cccc(-c3ccccc3)c2)nc1C#N | < 1
O=S(=O)(Nc1ccc(-c2ccccc2)cc1)c1ccc(NCc2ccc(Br)cc2O)cc1 | < 1
Fc1cccc(Nc2nc(-c3ccncc3)nc3ccccc23)c1F | < 1
Cn1nnnc1Sc1ncnc2scc(-c3ccccc3F)c12 | 1.2 (≈ 3.48 µM)
Cc1ccnc(C)c1C(=O)Nc1cccc([S+](=O)([O-])N(C)C)c1 | > 49
O=C(CCCN1CCC2(CC1)C(=O)N(Cc1cccc(F)c1)CN2c1ccccc1)c1ccc(F)cc1 | 4.23 (≈ 8.41 µM)
Fc1cc(Nc2nc(-c3ccncc3)nc3ccccc23)ccc1N1CCCCC1 | < 1
CC(=O)c1ccc(N2CCN(S(=O)(=O)c3ccc4[nH]c(=O)[nH]c4c3)CC2)cc1 | 1.19 (≈ 2.97 µM)
COc1ccc(C)cc1NC(=O)c1cnc(-c2ccc(F)cc2)nc1-c1ccncc1 | < 1
Cc1noc(C)c1CN1CCNc2cc(Nc3ccccc3)ncc2C1 | > 77

Structure (SMILES) | solubility kinetic [µg/mL]
COc1ccc(OC)c(CNc2ncnc3onc(C)c23)c1 | > 44
Oc1ccc(CNc2ccc(F)cc2F)c2cccnc12 | 1.22 (≈ 4.27 µM)
O=C(Nc1ncc(Cc2ccc(C(F)(F)F)cc2)s1)c1ccc(-c2ccc([N+](=O)[O-])cc2)o1 | < 1
COc1ccc2[nH]c(=O)c(-c3noc(-c4cccs4)n3)cc2c1 | < 1
CN1CCN(c2ccc(Nc3c4ccccc4nc4ccccc34)cc2)CC1 | > 54
Cc1ccc(-c2nnc(Nc3ccc(Br)cc3)c3ccccc23)cc1S(=O)(=O)N1CCN(C)CC1 | < 1
OCC(O)CCO/N=C1/C(c2c(O)[nH]c3ccccc23)=Nc2ccccc21 (configuration not stated) | < 1
O=C(Cc1ccc(Cl)c(Cl)c1)Nc1ccc(S(=O)(=O)Nc2ccon2)cc1 | > 100
COc1ccc(/C=C2/C(=O)Nc3ccccc32)cc1O | 29.2 (≈ 109 µM)
CC(=O)Nc1cccc(-c2nc(-c3c(C)noc3C)cc3c2cc(-c2ccccc2)n3C)c1 | < 1
CN(C)c1cccc(-c2cc(N3CCC(C(N)=O)CC3)ncn2)c1 | > 48
O=C(NCc1ccncc1)c1nc(-c2cccnc2)c2cnccn12 | 40.8 (≈ 124 µM)
COC(=O)c1cccc(NC(=O)c2cnc(-c3ccc(F)cc3)nc2-c2ccncc2)c1 | < 1
CCCCN1CCC[C@H]1CNC(=O)c1cc(C#N)c2ccccc2c1OC | 22.2 (≈ 60.6 µM)
O=C(NCCc1ccc(OCC(F)(F)F)c(OCC(F)(F)F)c1)c1cc2sccc2n1Cc1ccccc1 | < 1
CN(C)S(=O)(=O)c1cccc(NC(=O)c2ccc[nH]2)c1 | 13.3 (≈ 45.2 µM)
Cc1cc(NS(=O)(=O)c2ccc(NC(=O)Cc3ccc(Cl)c(Cl)c3)cc2)n(C)n1 | > 67
Cc1ccc(S(=O)(=O)Nc2cnccc2C(=O)Nc2nc(-c3cccc(C)c3)cs2)cc1 | 15.4 (≈ 33.1 µM)
CSc1ccc(/C=C/c2nc3ccccc3n2S(=O)(=O)c2cccc(Cl)c2)cc1 | < 1
Fc1ccc(Nc2nc(C3=CCNCC3)nc3ccccc23)cc1F | > 50
O=C(Nc1ncc(Cc2ccc(C(F)(F)F)cc2)s1)c1ncc(-c2ccccc2)[nH]1 | < 1
CC(=O)c1c(C)[nH]c(C(=O)Nc2cccc(S(=O)(=O)N3CCCCC3)c2)c1C | 4.57 (≈ 11.3 µM)
CCc1cccc(NC(=O)c2c(C)oc3nc(C)nc(N4CCCC4)c23)c1 | 14.8 (≈ 40.6 µM)
CCOc1ccc(CCN(C)C(=O)c2cc3sccc3n2Cc2ccccc2)cc1OCC | < 1
CCN1CCN(C(=O)c2cc(-c3ccc(F)cc3)c3nncn3n2)CC1 | > 52
Cc1nc([N+](=O)[O-])cn1-c1ccc([N+](=O)[O-])cc1 | > 37

Structure (SMILES) | solubility kinetic [µg/mL]
Cc1cc(Nc2ccc(Br)c(C)c2)n2nc(C)nc2n1 | 30.9 (≈ 93 µM)
O=[N+]([O-])c1cccc(CSc2nc3ncc(Br)cc3[nH]2)c1 | < 1
COc1ccc(-n2c(C)c(C(C)=O)c3ccccc32)cc1 | < 1
COCCN1CCNc2nc(COc3ccc(C(C)C)cc3)n(Cc3ccccc3)c2C1=O | < 1
Cc1nc2sccn2c(=O)c1S(=O)(=O)Nc1ccc(N2CCN(C)CC2)cc1 | > 62
CC(C)Oc1cccc(-c2csc(N3CCC(C(N)=O)CC3)n2)c1 | 41.7 (≈ 121 µM)
COc1ccc(CNC(=O)c2cnc3ccccc3n2)cc1 | 36.1 (≈ 123 µM)
N#C/C(=C\c1ccc(Sc2ccc(Cl)cc2)o1)c1nc2ccccc2[nH]1 | < 1
Nc1c(-c2ccccc2)cnc2c(-c3ccccc3)cnn12 | < 1
Cc1cc(SCc2sc(-c3ccc(C(F)(F)F)c(F)c3)nc2C)ccc1OCC(=O)O | > 70
CC1=C(C(=O)Nc2nncs2)C(c2[nH]ncc2Cl)N=C(Nc2nc3ccccc3o2)N1 (configuration not stated) | 34.6 (≈ 75.8 µM)
CC(C)Nc1oc(-c2cccc3ccccc23)nc1C#N | < 1
Cn1c2ccccc2c2c3c(c4c5ccccc5n(CCC#N)c4c21)CNC3=O | < 1
Cc1nn(Cc2ccccc2Cl)c(C)c1CN(C)CC(O)COc1ccc(Cl)cc1 (configuration not stated) | 55.6 (≈ 124 µM)
CCOC(=O)C1CCN(C(=O)C(C)(C)NC(=O)Nc2ccc(Cl)cc2Cl)CC1 | 37 (≈ 86 µM)
Fc1ccc(-c2nc(-c3ccncc3)nc3ccccc23)cc1F | < 1
CN1C(=O)CN=C(c2ccccc2Cl)c2cc(Cl)ccc21 | > 47
CCOC(=O)c1ccc(NC2CCCCC2)c(N)c1 | 31 (≈ 118 µM)
O=C1NCc2ccc(-c3cc4c(ccn4Cc4cccnc4)c(C4=CCOCC4)n3)cc21 | 54 (≈ 128 µM)
COc1ccc(-c2ccc3ncc(Nc4ccc(C(N)=O)cc4)n3n2)cc1OC | 27.4 (≈ 70.4 µM)
O=C(Nc1nc2cc(C(F)(F)F)cc(NC3CC3)n2n1)c1cccnc1 | < 1
O=C(Cc1ccc(O)cc1)N1CC(CNc2ccccc2)C2(C1)CN(c1ccccc1)C2 (configuration not stated) | < 1
Oc1cccc2nc3ccccc3nc12 | > 29
Fc1cc(Nc2nc(-c3ccncc3)nc3ccccc23)ccc1C(F)(F)F | < 1
N#Cc1ccccc1-c1csc(N2CCC(C(N)=O)CC2)n1 | 36.9 (≈ 118 µM)
CC(C)n1cc(-c2ccc3c(c2)N(C)CC3)c2c(NS(=O)(=O)c3ccn(C)n3)ccnc21 | 36.7 (≈ 81.5 µM)

Structure (SMILES) | solubility kinetic [µg/mL]
CN[C@@H](C)C(=O)N[C@@H]1C(=O)N(Cc2c(C)ccc3ccccc23)c2ccc(C#N)cc2N(C(C)=O)[C@H]1C | > 73
COc1cc2c3cc1Oc1c(O)c(OC)cc4c1[C@@H](Cc1ccc(cc1)Oc1cc(ccc1O)C[C@H]3N(C)CC2)N(C)CC4 | > 88
C[C@@H]1C(=O)O[C@H]2[C@H]1CC[C@@]1(C)Cc3sc(NS(=O)(=O)Cc4ccccc4)nc3[C@@H](C)[C@H]21 | > 68
O=C(Cn1ccn2nc3c(c2c1=O)CCCCC3)Nc1ccc2c(c1)OCO2 | < 1
O=C(Nc1ccc(S(=O)(=O)Nc2nccs2)cc1)c1ccncc1 | 19.5 (≈ 54.1 µM)
Cc1ccc(C(=O)Nc2nc3nc(C)cc(=O)n3[nH]2)cc1 | > 42
CCOc1ccc(C(C)CNC(=O)c2cc3sccc3n2Cc2ccccc2)cc1OCC (configuration not stated) | < 1
CCOc1ccc(CCNC(=O)c2cc3sccc3n2Cc2ccncc2)cc1OCC | 4.18 (≈ 9.31 µM)
COc1ccc2[nH]cc(CCNC(=O)c3cnn(-c4ccc(C)cc4)c3C3CCN(C(=O)OC(C)(C)C)CC3)c2c1 | 1.56 (≈ 2.8 µM)
COc1ccc(-c2nc3ccc(C4=NNC(=O)CC4C)cc3[nH]2)cc1 (configuration not stated) | < 1
CC(C)(C)C(=O)C(Oc1ccc(Cl)cc1)n1ccnc1 (configuration not stated) | 29 (≈ 99.1 µM)
CC(C)Oc1ccccc1C(=O)Nc1nc(-c2ccccc2)cs1 | < 1
FC(F)(F)c1ccccc1-c1nc(NCc2ccc(-c3cccnc3)cc2)c2ccccc2n1 | < 1
NC(=O)C1CCN(c2nc(-c3cccc([N+](=O)[O-])c3)cs2)CC1 | 28.4 (≈ 85.3 µM)
COc1ccc(-c2csc(NC(=O)c3ccncc3NS(=O)(=O)c3ccc(C)cc3)n2)cc1 | 54.8 (≈ 114 µM)
COc1ccc(NC(=O)c2[nH]c(C)cc2C)cc1S(=O)(=O)Nc1ccc(Br)cc1 | < 1
COc1ccccc1N1CCN(CCN(C(=O)c2ccc(F)cc2)c2ccccn2)CC1 | > 64
O=C(Cc1nc2ccc(Cl)cc2[nH]1)Nc1ccc(S(=O)(=O)Nc2nccs2)cc1 | 4.93 (≈ 11 µM)
c1ccc(C2=Nn3c(nnc3-c3ccncc3)SC2)cc1 | 8.9 (≈ 30.3 µM)
C[C@@]1(O)[C@H](O)[C@@H](CO)O[C@H]1n1ccc(N)nc1=O | > 38
COc1ccc(NC(=O)CCCc2nnc3n(CCC(C)C)c(=O)c4sccc4n23)cc1Cl | < 1
C[C@@]1(c2ncncc2F)NC(=O)c2cc(-c3cn[nH]c3)ccc21 | 17.9 (≈ 58 µM)
Cc1ccc(NS(=O)(=O)c2ccc3[nH]c4c(c3c2)CCCCCC4)cc1 | < 1
CCn1c(C(=O)N2CCCC(C(=O)NCCc3ccc(C)cc3)C2)cc2sccc21 (configuration not stated) | 17.1 (≈ 40.3 µM)
